Source: patent US20170137458A1, “OXYSTEROLS FOR USE IN THE TREATMENT AND PREVENTION OF DISEASES CAUSED BY VIRUSES” (priority 2014, published 2017)
Like-named read-outs stand apart in the source and are kept apart here.

Assays:
HPV PsV (protein L1) = test: Assay for adhesion of the papillomavirus to the cell surface: Western blot analysis; type: cell-based, human papillomavirus; details: Hela cells treated 16 hours, PsV 4 hours at 4° C.
Description: L1 was detected using the murine monoclonal antibody (Ab30908, Abcam, Cambridge, UK) at a dilution of 1:2000, followed by secondary antibody IgG-HRP (Santa Cruz Biotechnology Inc.). The actin was detected using an anti-actin murine monoclonal antibody (MAB1501R, Millipore), followed by secondary antibody IgG-HRP (Santa Cruz Biotechnology Inc.).

LXR = details: cited from earlier work
adenovirus 5 = details: for example the adenovirus 5; cited from earlier work
PsV of HPV-16 = test: microbe, parasite or virus in culture; type: cell-based, human papillomavirus
rhinovirus = details: cited from earlier work
rotavirus = test: Rotavirus cell entry kinetics; type: cell-based; details: MA104 cells
Method: To measure the entry speed of the rotavirus into the cells, confluent monolayers of MA104 cells (cultivated in plates with 96 wells) were treated with 25OHC, 27OHC or 7κC at 1.9 μM at 37° C.; after 20 hours, the cells were washed extensively with cold medium and left to cool on ice. […] The non-bound viruses were then eliminated by washing, medium was added at 37° C., and the plates were incubated at 37° C. in a humidified atmosphere. At fixed times (i.e. 0, 15, 30, 45, 60, 75 and 90 minutes after the virus-cell adhesion), the medium was extracted from the wells and the viral particles still present on the surface of the cells were eliminated by means of two rapid washing operations with EGTA 3 mM in PBS, followed by incubation in warm medium. After reaching the last time point (90 minutes from the virus-cell adhesion), the plates with 96 wells were placed in an incubator (37° C., 5% CO2), and the infection was left to proceed for a further 16 hours. The cells were then fixed and coloured as described above. The quantity of viral particles that entered the cells at each time point was compared with the quantity of virus that entered when no washing with EGTA was performed (100% entry). The ANOVA, followed by the Bonferroni test, was used to evaluate the statistical significance of the differences between the treated and non-treated samples. The significance was fixed at the level of 95%.
As a control experiment, the same treatment and infection protocol was performed on MA104 cells, cultivated in a plate with 6 wells. In this experiment, after reaching the last time point of the entry measurement (90 minutes), the cells were lysed, the proteins extracted were denatured by boiling for 5 minutes, then separated by electrophoresis on sodium dodecylsulfate gel with 12% polyacrylamide (SDS-12%PAGE) and transferred to a polyvinylidene difluoride (PVDF) membrane. The protein of the intermediate capsid VP6 was detected using the murine monoclonal antibody 2B4 (mab0036-P, CovalAb) at a dilution 1:750, followed by secondary antibody IgG-HRP (Santa Cruz Biotechnology Inc.). The actin was detected using the anti-actin murine monoclonal antibody MAB1501R (Millipore), followed by antibody IgG-HRP (Santa Cruz Biotechnology Inc.). The density of the bands was compared using the ImageJ software, and the intensity of the actin bands was used to normalize the values. The ANOVA, followed by the Bonferroni test, was used to evaluate the statistical significance of the differences between the treated and the non-treated samples. The significance was fixed at the level of 95%. The results are reported in FIG. 11 and are expressed as a percentage, comparing treated cells with cells incubated with culture medium.

human rotavirus HRV 408 = test: Infectivity assay for rotavirus, MA104 cells, strain HRV 408
Method: (§1) The strains of human rotavirus Wa (ATCC® VR-2018), WI61 (ATCC® VR-2551), HRV 408 (ATCC® VR-2273), HRV 248 (ATCC® VR-2274) and DS-1 (ATCC® VR-2550) were acquired from the American Tissue Culture Collection (ATCC); the viruses were activated with 5 μg/ml porcine pancreatic trypsin of type IX (Sigma, St. Louis, Mo.) for 30 minutes at 37° C. and propagated in MA104 cells using MEM containing 0.5 μg of trypsin per ml as described previously (27).
(§2) The antiviral effectiveness of the oxysterols of the invention was determined by means of infectivity inhibition assay. The assays were performed with confluent monolayers of MA104 cells seeded in plates with 96 wells, as described previously (28). […] The control samples were prepared by treating the cells with culture medium with the addition of equal volumes of ethanol. The cells were then washed with medium, and the rotavirus infection was performed at a multiplicity of infection (MOI) of 0.02. After the infection, the cells were washed with medium and incubated at 37° C. in an incubator humidified at 5% (vol/vol) CO2-95% (vol/vol) of air. After 16 hours, the infected cells were fixed with a cold acetone-methanol mixture (50:50), and the virus titres were determined by means of indirect immunocytochemistry. The inhibition of the virus infectivity was expressed as a percentage comparing the mean number of infective events in the treated and non-treated samples±the standard deviations. Where possible, the values of the oxysterol concentrations able to determine 50% or 90% of the antiviral effect (EC50 and EC90 respectively) were calculated by means of regression analysis using the dose-response curves generated by the experimental data, with the use of PRISM 5.00 (GraphPad Software, San Diego, Calif., USA).

human papillomavirus = test: Target identification by siRNA sensitization (TISS), human papillomavirus, HeLa cells; details: oxysterol at its EC50
Method: (§3) This mechanism of action vis-à-vis the rotavirus was therefore investigated, performing a target identification assay by means of sensitization with short interfering RNA (siRNA). The Caco2 cells (for the experiments with human rotavirus) or the HeLa cells (for the experiments with human papillomavirus) were seeded in a plate with 24 wells; during seeding, the cells were transfected with siRNA specific for OSBP and VAPA (at a concentration of 20 nM). […] After one day, the medium was removed and the cells inoculated with the respective viruses in the same time, temperature and MOI conditions described in the protocols of the infectivity or neutralization assays. The number of infected cells was evaluated as described in the preceding paragraphs.

human rotavirus DS-1 = test: Infectivity assay for rotavirus, MA104 cells, strain DS-1
Method: as §1, §2

human rotavirus = test: Target identification by siRNA sensitization (TISS), human rotavirus, Caco2 cells; details: oxysterol at its EC50
Method: as §3

human rotavirus Wa = test: Infectivity assay for rotavirus repeated on Caco2 cells, strain Wa; type: cell-based; details: Caco-2
Description: The results of the antiviral assays performed treating with 25OHC and 27OHC were confirmed repeating the infectivity assays on Caco2 cells.

[1] = system: human rotavirus (strain Wa); test: Rotavirus yield reduction assay; type: cell-based
Method: The cells were treated at 37° C. with 25-, 27-, 7α-, 7β-hydroxycholesterol or 7-ketocholesterol at 5.6 μM for 20 hours, then washed with medium and infected with the human rotavirus at an MOI of 0.02 (strain Wa) activated with trypsin. After one hour, the cells were washed and fresh medium was added supplemented with 0.5 μg/ml of porcine trypsin. […] The assay was performed in triplicate and the results were confirmed on Caco2 cells. In an alternative protocol, the MA104 cells were treated with oxysterols—at the concentration indicated above—after the viral inoculum. The one-way variance analysis (ANOVA), followed by the Bonferroni test, was used to evaluate the statistical significance of the virus titre differences between the treated and non-treated samples. The significance was fixed at 95%.
The results of the pre-treatment assays are illustrated in FIGS. 5 (MA104 cells) and 6 (Caco2 cells).

human rhinovirus 1A = test: Infectivity assay with rhinovirus (plaque count, HeLa cells)
Method: The human rhinovirus 1A (ATCC® VR-1559) was acquired from ATCC. The virus was propagated in HeLa cells, at 33° C. with 5% of CO2. When the cytopathic effect (CPE) had fully developed, cells and supernatants were collected, frozen and thawed three times, clarified and divided into aliquots. The viruses were kept at −70° C. The rhinovirus titres were determined by means of the standard plaque assay. In short, the HeLa cells were seeded 2 days prior to the infection in plates with 96 wells, reaching 60%-70% confluence at the time of the infection. The viral suspension was serially diluted in DMEM supplemented with 2% fetal bovine serum and inoculated; the infected wells were incubated at 33° C. for 1 hour, allowing the viruses to adhere and enter the cells. The cells were subsequently washed with medium and covered with a 1:1 mixture of 1.6% SeaPlaque agarose (BioWhittaker Molecular Applications) and DMEM 2X [26.76 g DMEM (Gibco BRL), 20 ml of L-glutamine (Gibco BRL), 4.4 g of sodium bicarbonate (Sigma, St. Louis, Mo.), FBS 40 ml (Sigma, St. Louis, Mo.) and 1000 ml of water]. The plates were incubated at 33° C. for 3 days. At the end of the incubation, the plates were fixed with 7.5% formaldehyde (Fluka) and coloured with crystal violet (Sigma, St. Louis, Mo.). The number of plaques formed was then counted; the virus titres were expressed in terms of plaque-forming units per ml (PFU/ml).
The HeLa cells, kept in DMEM supplemented with 10% FBS and 1% Zell Shield, were seeded (at 8×10^4 cells/well) in plates with 24 wells. The medium was removed and the cells were infected with 200 microlitres/well containing approximately 30 PFU of a stock of human rhinovirus 1A. The infected cells were incubated at 33° C. for 1 h, allowing the virus to adhere and enter the cells. […] The plates were incubated at 33° C. for 5 days. After the incubation, the plates were fixed with formaldehyde at 7.5% (Fluka), coloured with crystal violet (Sigma, St. Louis, Mo.) and the number of plaques formed was counted. The oxysterol concentration values able to determine 50% or 90% of the antiviral effect (EC50 and EC90 respectively) were calculated by means of regression analysis using the dose-response curves generated by the experimental data, using PRISM 5.00 (GraphPad Software, San Diego, Calif., USA).

[2] = pre-treatment assay, 20 hours prior to the infection

**Q.** With `C[C@H](CCCC(C)(C)O)[C@H]1CC[C@H]2[C@@H]3CC=C4C[C@@H](O)CC[C@]4(C)[C@H]3CC[C@]12C` [25OHC, 25-hydroxycholesterol] as the molecule, how does the “adhesion of the PsV to the cell surface (L1 Western blot)” value (HPV PsV (protein L1)) read?
**A.** Its value is “not able to inhibit adhesion of the PsV to the cell surface”.

**Q.** What about the LXR ligand activity (LXR) of the same molecule?
**A.** The LXR ligand activity was “optimal ligands of LXR”.

**Q.** What about the “effectiveness on naked viruses” value (adenovirus 5) of the same molecule?
**A.** The value was “not effective on naked viruses”.

**Q.** What about the EC50 (PsV of HPV-16; C33A cells, treated 16 hours before PsV, read-out: EC50) of the same molecule?
**A.** Its EC50 is 2060 nM.

**Q.** And the EC50 (PsV of HPV-16; Human papillomavirus, HeLa)?
**A.** Its EC50 is 2190 nM.

**Q.** And the EC50 (PsV of HPV-16; Human papillomavirus, SiHa)?
**A.** The EC50 was 14800 nM.

**Q.** And the “replication of the genoma of the rhinovirus” value (rhinovirus)?
**A.** Its value is “able to inhibit replication of the genoma”.

**Q.** What about the “rhinovirus entry into the host cell” value (rhinovirus) of the same molecule?
**A.** Its value is “not entry into the host cell”.

**Q.** And the “entry of the rotavirus into the cells (infective events)” value (rotavirus; 1.9 μM for 20 hours, MOI 0.02)?
**A.** The value was “totally inhibit the ability of the rotavirus to penetrate into the host cells”.

**Q.** And the “viral antigen VP6 within the cells (Western blot)” value (rotavirus; 90 minutes after virus-cell adhesion)?
**A.** Its value is “significantly (p<0.05) lower quantity than the non-treated control”.

**Q.** And the EC50 (human rotavirus HRV 408)?
**A.** The EC50 was 120 nM.

**Q.** And the EC90 (human rotavirus HRV 408)?
**A.** Its EC90 is 420 nM.

**Q.** What about the “antiviral activity in cells with OSBP silenced” value (human papillomavirus; OSBP siRNA 20 nM) of the same molecule?
**A.** Its value is “higher”.

**Q.** And the “antiviral activity in cells with VAP-A silenced” value (human papillomavirus; VAPA siRNA 20 nM)?
**A.** The value was “higher”.

**Q.** And the EC50 (human rotavirus DS-1)?
**A.** Its EC50 is 270 nM.

**Q.** And the EC90 (human rotavirus DS-1)?
**A.** The EC90 was 5770 nM.

**Q.** And the “antiviral activity in cells with OSBP silenced” value (human rotavirus; OSBP siRNA 20 nM)?
**A.** Its value is “higher”.

**Q.** What about the “antiviral activity in cells with VAP-A silenced” value (human rotavirus; VAPA siRNA 20 nM) of the same molecule?
**A.** The value was “higher”.

**Q.** And the EC50 (human rotavirus Wa)?
**A.** Its EC50 is 190 nM.

**Q.** And the EC90 (human rotavirus Wa)?
**A.** The EC90 was 1260 nM.

**Q.** And the “production of virus progenies” value ([1]; Caco2 cells, pre-treatment 5.6 μM for 20 hours, collected 48 hours after infection)?
**A.** Its value is “significantly limit (p<0.05) the production of virus progenies”.

**Q.** What about the “production of virus progenies” value ([1]; MA104 cells, post-infection treatment 5.6 μM) of the same molecule?
**A.** The value was “confirm the in vitro effectiveness”.

**Q.** What about the “production of virus progenies” value ([1]; MA104 cells, pre-treatment 5.6 μM for 20 hours, collected 48 hours after infection) of the same molecule?
**A.** Its value is “significantly limit (p<0.05) the production of virus progenies”.

**Q.** And the EC50 (human rhinovirus 1A; post-infection treatment assay)?
**A.** The EC50 was 160 nM.

**Q.** And the EC90 (human rhinovirus 1A; post-infection treatment assay)?
**A.** Its EC90 is 410 nM.

**Q.** What about the EC50 (human rhinovirus 1A; [2]) of the same molecule?
**A.** The EC50 was 290 nM.

**Q.** And the EC90 (human rhinovirus 1A; [2])?
**A.** Its EC90 is 540 nM.
